ChEMBL document CHEMBL1144858, “3D-QSAR CoMFA studies on bis-coumarine analogues as urease inhibitors: a strategic design in anti-urease agents” (Bioorg Med Chem, 2008)

Biological target: Urease (Canavalia ensiformis, UniProt P07374)
Assay: Inhibition of jack bean urease

Sequence of Urease (P07374 whole entry): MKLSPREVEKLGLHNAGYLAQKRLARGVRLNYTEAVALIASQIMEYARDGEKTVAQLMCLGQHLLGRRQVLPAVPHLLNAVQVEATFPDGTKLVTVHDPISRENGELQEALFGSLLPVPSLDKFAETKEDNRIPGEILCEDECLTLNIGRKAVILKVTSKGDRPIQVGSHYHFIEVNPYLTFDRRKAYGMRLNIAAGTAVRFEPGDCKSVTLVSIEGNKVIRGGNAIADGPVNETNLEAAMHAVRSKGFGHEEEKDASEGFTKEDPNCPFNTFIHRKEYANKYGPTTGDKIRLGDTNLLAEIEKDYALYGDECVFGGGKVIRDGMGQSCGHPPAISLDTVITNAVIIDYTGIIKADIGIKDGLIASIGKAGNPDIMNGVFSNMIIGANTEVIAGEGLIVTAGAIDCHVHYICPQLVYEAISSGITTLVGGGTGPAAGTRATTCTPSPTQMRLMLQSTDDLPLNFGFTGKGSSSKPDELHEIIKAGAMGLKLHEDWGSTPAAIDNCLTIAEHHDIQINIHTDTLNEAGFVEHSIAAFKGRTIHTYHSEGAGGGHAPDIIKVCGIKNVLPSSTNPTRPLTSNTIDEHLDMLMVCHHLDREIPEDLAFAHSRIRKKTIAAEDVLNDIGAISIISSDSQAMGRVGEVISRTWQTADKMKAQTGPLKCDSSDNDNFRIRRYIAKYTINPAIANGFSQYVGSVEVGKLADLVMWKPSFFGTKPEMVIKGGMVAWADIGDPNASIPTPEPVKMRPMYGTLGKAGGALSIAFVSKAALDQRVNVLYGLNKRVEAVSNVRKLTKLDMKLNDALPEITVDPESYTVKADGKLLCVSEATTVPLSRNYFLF

| SMILES | IC50 [µM] |
| --- | --- |
| COc1cc(C(c2c(O)oc3ccccc3c2=O)c2c(O)oc3ccccc3c2=O)cc(OC)c1OC | 83.2 |
| CC(C)c1ccc(C(c2c(O)oc3ccccc3c2=O)c2c(O)oc3ccccc3c2=O)cc1 | 83.2 |
| COc1ccc(C(c2c(O)c3ccccc3oc2=O)c2c(O)c3ccccc3oc2=O)cc1 | 60.3 |
| O=c1oc2ccccc2c(O)c1C(c1c(O)c2ccccc2oc1=O)c1c[nH]c2ccccc12 | 61.7 |
| CCCCCC(c1c(O)c2ccccc2oc1=O)c1c(O)c2ccccc2oc1=O | 87.1 |
| O=c1oc2ccccc2c(O)c1C(c1ccncc1)c1c(O)c2ccccc2oc1=O | 58.9 |
| O=c1oc2ccccc2c(O)c1C(/C=C/c1ccccc1)c1c(O)c2ccccc2oc1=O | 60.3 |
| O=c1oc2ccccc2c(O)c1C(c1cccnc1)c1c(O)c2ccccc2oc1=O | 35.5 |
| O=c1oc2ccccc2c(O)c1C(c1ccccc1Cl)c1c(O)c2ccccc2oc1=O | 85.1 |
| CC(c1ccccc1)C(c1c(O)c2ccccc2oc1=O)c1c(O)c2ccccc2oc1=O (stereo not drawn) | 52.5 |
| CCOc1cc(C(c2c(O)c3ccccc3oc2=O)c2c(O)c3ccccc3oc2=O)ccc1O | 91.2 |
| O=c1oc2ccccc2c(O)c1C(c1ccc[nH]1)c1c(O)c2ccccc2oc1=O | 46.8 |
| CCCCC(c1c(O)c2ccccc2oc1=O)c1c(O)c2ccccc2oc1=O | 64.6 |
| O=c1oc2ccccc2c(O)c1C(CCc1ccccc1)c1c(O)c2ccccc2oc1=O | 67.6 |
| O=c1c(C(c2ccc(O)cc2)c2c(O)oc3ccccc3c2=O)c(O)oc2ccccc12 | 74.1 |
| COc1cccc(C(c2c(O)c3ccccc3oc2=O)c2c(O)c3ccccc3oc2=O)c1 | 56.2 |
| COc1ccccc1C(c1c(O)c2ccccc2oc1=O)c1c(O)c2ccccc2oc1=O | 83.2 |
| CC(c1c(O)c2ccccc2oc1=O)c1c(O)c2ccccc2oc1=O | 63.1 |
| CCCC(c1c(O)c2ccccc2oc1=O)c1c(O)c2ccccc2oc1=O | 67.6 |
| O=c1oc2ccccc2c(O)c1C(c1cccc(O)c1)c1c(O)c2ccccc2oc1=O | 72.4 |
| O=c1oc2ccccc2c(O)c1C(c1cccc([N+](=O)[O-])c1)c1c(O)c2ccccc2oc1=O | 81.3 |
| C/C=C/C(c1c(O)c2ccccc2oc1=O)c1c(O)c2ccccc2oc1=O | 43.7 |
| O=c1oc2ccccc2c(O)c1C(c1ccccc1Br)c1c(O)c2ccccc2oc1=O | 74.1 |
| COc1ccc(C(c2c(O)c3ccccc3oc2=O)c2c(O)c3ccccc3oc2=O)cc1OC | 79.4 |
| O=c1oc2ccccc2c(O)c1C(c1cccc(Cl)c1)c1c(O)c2ccccc2oc1=O | 74.1 |
| Nc1cccc(C(c2c(O)c3ccccc3oc2=O)c2c(O)c3ccccc3oc2=O)c1 | 75.9 |
| O=c1c(C(c2ccc([N+](=O)[O-])cc2)c2c(O)oc3ccccc3c2=O)c(O)oc2ccccc12 | 70.8 |
| O=c1oc2ccccc2c(O)c1Cc1c(O)c2ccccc2oc1=O [DICUMAROL] | 15.1 |
